Experimental findings from US7109296B2, “Human 5-HT3-C protein” (Ortho-McNeil Pharmaceutical, Inc., priority 1999, dated 2006) are described below.

In experiment [1] the target is T1, 5-HT3-C together with nicotinic ACh receptor a6 subunit (Homo sapiens, UniProt Q15825+Q8WXA8).
T1 construct: Characterization of the Function of Protein Encoded by p5HT3CR in Xenopus oocvtes; expressed in transfected cells; host or cells: Xenopus laevis oocytes injected with cRNA
The experiment can be described thus: Two-electrode voltage clamp, oocytes injected with 5-HT3-C together with nicotinic ACh receptor α6 subunit. Type of experiment: cell-based. Particulars: 10 μM; eight days after injection; 5-HT3-C 0.67 ng, a6 1 ng/oocyte. How it is done: Characterization of the Function of Protein Encoded by p5HT3CR in Xenopus oocvtes Xenopus laevis oocytes were prepared and injected using standard methods previously described and known in the art (Fraser et al., 1993). Ovarian lobes from adult female Xenopus laevis (Nasco, Fort Atkinson, Wis.) were teased apart, rinsed several times in nominally Ca-free saline containing (in mM): NaCl 82.5, KCl 2.5, MgCl2 1, HEPES 5, adjusted to pH 7.0 with NaOH(OR-2), and gently shaken in OR-2 containing 0.2% collagenase Type 1 (ICN Biomedicals, Aurora, Ohio) for 2–5 hours. When approximately 50% of the follicular layers were removed, Stage V and VI oocytes were selected and rinsed in media consisting of 75% OR-2 and 25% ND-96. The ND-96 contained (in mM): NaCl 100, KCl 2, MgCl2 1, CaCl2 1.8, HEPES 5, Na pyruvate 2.5, gentamicin (50 ug/ml), adjusted to pH 7.0 with NaOH. […] For in vitro transcription, pGEM HE (Liman et al., 1992) containing human 5-HT3-A (Genbank D49394) or 5-HT3-C cDNA was linearized with NheI and transcribed with T7 RNA polymerase (Stratagene) in the presence of the cap analog m7G(5′)ppp(5′)G. The synthesized cRNA was purified with a Sephadex G-50 spin column. Oocytes were injected with 50 nl of the human serotonin 5-HT3-A receptor with or without the 5-HT3-C RNA (0.02 and 0.002–0.2 ng each) or other channel or receptor subunit. Control oocytes were injected with 50 nl of water. Oocytes were incubated for 2–14 days in ND-96 before analysis for expression of the human 5-HT3-C. Incubations and collagenase digestion were carried out at room temperature. Injected oocytes were maintained in 48 well cell culture clusters (Costar, Cambridge, Mass.) at 18° C. Whole cell agonist-induced currents were measured 1–14 days after injection with a conventional two-electrode voltage clamp (GeneClamp500, Axon Instruments, Foster City, Calif.) using standard methods previously described and known in the art (Dascal, 1987). The microelectrodes were filled with 3 M KCl, which had resistances of 1 and 2 MΩ. […]
(Two-electrode voltage clamp holds a large cell at a set potential and records current.)

Experiment [2] deals with T2, human 5-HT3-A(short) receptor (Homo sapiens, UniProt P46098).
T2 sequence (P46098 24-478): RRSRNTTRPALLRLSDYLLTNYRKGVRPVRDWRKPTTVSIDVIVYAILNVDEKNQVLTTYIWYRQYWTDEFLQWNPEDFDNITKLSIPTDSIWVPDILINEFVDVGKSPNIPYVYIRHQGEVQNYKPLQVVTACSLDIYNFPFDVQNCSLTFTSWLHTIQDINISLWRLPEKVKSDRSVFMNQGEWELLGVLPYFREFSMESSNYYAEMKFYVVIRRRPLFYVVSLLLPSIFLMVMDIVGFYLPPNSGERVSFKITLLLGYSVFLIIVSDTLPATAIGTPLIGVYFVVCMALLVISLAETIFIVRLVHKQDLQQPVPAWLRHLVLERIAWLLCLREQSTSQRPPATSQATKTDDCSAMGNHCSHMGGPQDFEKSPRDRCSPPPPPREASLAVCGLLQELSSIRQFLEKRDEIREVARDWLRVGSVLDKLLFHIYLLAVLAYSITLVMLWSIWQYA
Briefly: Two-electrode voltage clamp, oocytes expressing 5-HT3-A(short) homomeric receptors. It is filed as cell-based.

T1 sequence (Q8WXA8 28-447): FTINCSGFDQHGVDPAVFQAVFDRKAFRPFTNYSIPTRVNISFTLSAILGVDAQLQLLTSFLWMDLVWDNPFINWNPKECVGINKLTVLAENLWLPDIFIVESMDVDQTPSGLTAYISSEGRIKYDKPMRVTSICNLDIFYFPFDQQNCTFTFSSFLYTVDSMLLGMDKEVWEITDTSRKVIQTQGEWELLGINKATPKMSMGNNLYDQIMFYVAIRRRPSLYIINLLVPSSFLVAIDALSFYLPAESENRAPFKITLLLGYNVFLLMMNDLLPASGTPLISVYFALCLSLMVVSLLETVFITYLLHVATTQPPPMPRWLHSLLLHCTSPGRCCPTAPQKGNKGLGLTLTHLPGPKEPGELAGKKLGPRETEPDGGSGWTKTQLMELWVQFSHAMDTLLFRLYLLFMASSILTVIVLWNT
T1 sequence (Q15825 26-494): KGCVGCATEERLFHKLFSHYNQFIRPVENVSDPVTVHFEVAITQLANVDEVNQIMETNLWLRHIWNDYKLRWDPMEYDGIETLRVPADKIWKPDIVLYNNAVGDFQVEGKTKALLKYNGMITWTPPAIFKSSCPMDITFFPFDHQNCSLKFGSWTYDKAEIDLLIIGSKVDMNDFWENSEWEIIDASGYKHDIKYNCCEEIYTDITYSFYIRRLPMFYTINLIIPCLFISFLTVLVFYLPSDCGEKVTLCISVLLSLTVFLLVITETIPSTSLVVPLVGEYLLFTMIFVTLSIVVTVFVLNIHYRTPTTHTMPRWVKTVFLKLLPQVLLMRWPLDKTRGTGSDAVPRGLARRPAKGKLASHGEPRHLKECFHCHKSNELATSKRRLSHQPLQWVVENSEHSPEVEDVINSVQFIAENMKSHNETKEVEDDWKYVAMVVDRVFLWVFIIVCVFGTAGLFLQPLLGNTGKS

For the compound `NCCc1c[nH]c2ccc(O)cc12` [5-HT, 5-hydroxytryptamine], the “responsiveness of oocytes to agonist” value in experiment [1] is reported as “not responsive”. The “peak currents to 5-HT” value in experiment [2] (5-HT3-A(short)-expressing oocytes, comparison for 2:1 ratio, n=19) is recorded as −1.65+/−0.42 nA. Besides, the “Responses to 5-HT” value in experiment [2] (10 LM 5-HT, 5-HT3-A(short)-injected oocytes (0.33 ng), n=6) is reported as −3.89+/−0.76 nA.
